Literature values in patent US7205293B2, “Benodiazepine spirohydantoin CGRP receptor antagonists” (Merck & Co., Inc., priority 2003, dated 2007).
No end group written: not given here.

Columns and labels:
facial blood flow [1] = conditions: marmoset, electrical stimulation of the trigeminal ganglion
[2] = test system: middle meningeal artery diameter; conditions: rats, electrical stimulation of the dura mater, prior administration
facial blood flow [3] = conditions: rat, trigeminal ganglion stimulation

Row | Compound | effect on increase in facial blood flow (facial blood flow [1]) | effect on increase of middle meningeal artery diameter [2] | effect on increase of facial blood flow (facial blood flow [3])
1 | NCCCC[C@H](NC(=O)[C@@H](Cc1cc(Br)c(O)c(Br)c1)NC(=O)N1CCC(N2Cc3ccccc3NC2=O)CC1)C(=O)N1CCN(c2ccncc2)CC1 [BIBN4096BS] | blocked | – | –
2 | CGRP(8–37): a peptide CGRP antagonist (VTHRLAGLLSRSGGVVKNNFVPTNVGSKAF; ends and bridges not checked; UniProt P06881 90-119, looked up, fragment) | – | blocked | inhibited
